Vmax data for two molecules are collected here from ChEMBL document CHEMBL1142441, “Stereochemical studies on the novel monoamine oxidase B substrates (1R,6S)- and (1S,6R)-3-methyl-6-phenyl-3-aza-bicyclo[4.1.0]heptane” (Bioorg Med Chem, 2008).

The target in the data set is T1, Amine oxidase [flavin-containing] B (Homo sapiens, UniProt P27338).
T1 sequence (P27338 whole entry): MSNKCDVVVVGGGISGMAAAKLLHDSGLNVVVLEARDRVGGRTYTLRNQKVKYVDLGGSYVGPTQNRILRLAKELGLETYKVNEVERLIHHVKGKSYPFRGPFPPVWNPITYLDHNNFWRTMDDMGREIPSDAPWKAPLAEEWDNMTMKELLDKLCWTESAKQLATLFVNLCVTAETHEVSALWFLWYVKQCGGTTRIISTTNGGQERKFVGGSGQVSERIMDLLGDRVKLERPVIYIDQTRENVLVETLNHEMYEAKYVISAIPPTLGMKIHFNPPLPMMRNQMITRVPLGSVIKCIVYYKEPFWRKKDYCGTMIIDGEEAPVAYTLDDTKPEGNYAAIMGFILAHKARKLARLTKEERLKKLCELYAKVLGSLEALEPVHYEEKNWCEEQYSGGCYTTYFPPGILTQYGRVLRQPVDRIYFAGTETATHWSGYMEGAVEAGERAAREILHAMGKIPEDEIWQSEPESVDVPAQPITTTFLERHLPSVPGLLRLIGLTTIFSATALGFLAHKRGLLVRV
As to the kind of experiment: Activity of 50 nM human recombinant MAOB after 30 mins. The conditions noted are these: 0.5 h.

With `CN1CC[C@]2(c3ccccc3)C[C@@H]2C1`, the Vmax is given as 135 nmol.

As for `CN1CC[C@@]2(c3ccccc3)C[C@H]2C1`, the Vmax was found to be 135 nmol.
